Measurements: ChEMBL document CHEMBL4428097, “Gallic acid induces apoptosis in EGFR-mutant non-small cell lung cancers by accelerating EGFR turnover” (Bioorg Med Chem Lett, 2016)
Calls of active or inactive are those of the source. The rule behind the calls is not given here.

Assays:
NCI-H1975 [1] = assay: Effect on ROS level in human NCI-H1975 cells harboring EGFR-mutant at 60 uM; type: functional, cell-based
NCI-H1650 [2] = assay: Induction of apoptosis in human NCI-H1650 cells harboring EGFR-mutant assessed as cell death measured after 24 hrs by Annexin-V/PI staining based analysis; type: functional
NCI-H1975 [3] = assay: Induction of apoptosis in human NCI-H1975 cells harboring EGFR-mutant assessed as cell death at 60 uM in presence of NAC; type: functional, cell-based
PC-9 [4] = assay: Antiproliferative activity against human gefitinib-resistant PC9 cells harboring EGFR T790M mutant assessed as cell viability measured after 24 hrs; type: functional, cell-based
NCI-H1975 [5] = assay: Increase in PARP level in human NCI-H1975 cells harboring EGFR-mutant at 30 and 60 uM by immunoblotting analysis; type: functional, cell-based
NCI-H1975 [6] = assay: Induction of EGFR turnover in human NCI-H1975 cells harboring EGFR-mutant assessed as receptor half life […] at 60 uM in presence of cycloheximide by immunoblotting analysis; type: functional, cell-based
NCI-H460 [7] = assay: Increase in PARP level in human NCI-H460 cells harboring wild-type EGFR at 30 and 60 uM by immunoblotting analysis; type: functional, cell-based
PC-9 [8] = assay: Increase in PARP level in human gefitinib-resistant PC9 cells harboring EGFR T790M mutant at 30 and 60 uM by immunoblotting analysis; type: functional, cell-based
PC-9 [9] = assay: Induction of apoptosis in human erlotinib-resistant PC9 cells harboring EGFR T790M mutant assessed as cell death at 30 and 60 uM measured after 24 hrs by Annexin-V/PI staining based analysis; type: functional
A549 [10] = assay: Induction of apoptosis in human A549 cells harboring wild-type EGFR assessed as cell death at 30 and 60 uM measured after 24 hrs by Annexin-V/PI staining based analysis; type: functional
NCI-H1975 [11] = assay: Increase in cleaved caspase3 level in human NCI-H1975 cells harboring EGFR-mutant at 30 and 60 uM by immunoblotting analysis; type: functional, cell-based
NCI-H1650 [12] = assay: Effect on ROS level in human NCI-H1650 cells harboring EGFR-mutant at 60 uM; type: functional, cell-based
NCI-H1975 [13] = assay: Inhibition of EGFR mutant-mediated AKT phosphorylation in human NCI-H1975 cells harboring EGFR-mutant at 30 and 60 uM measured after 24 hrs by immunoblotting analysis; type: cell-based
[14] = biological target: Epidermal growth factor receptor (Homo sapiens) (UniProt P00533); assay: Inhibition of EGFR-mediated AKT phosphorylation in human NCI-H460 cells harboring wild-type EGFR at 30 and 60 uM measured after 24 hrs by immunoblotting analysis; type: cell-based
Sequence of Epidermal growth factor receptor (Homo sapiens) (P00533 whole entry): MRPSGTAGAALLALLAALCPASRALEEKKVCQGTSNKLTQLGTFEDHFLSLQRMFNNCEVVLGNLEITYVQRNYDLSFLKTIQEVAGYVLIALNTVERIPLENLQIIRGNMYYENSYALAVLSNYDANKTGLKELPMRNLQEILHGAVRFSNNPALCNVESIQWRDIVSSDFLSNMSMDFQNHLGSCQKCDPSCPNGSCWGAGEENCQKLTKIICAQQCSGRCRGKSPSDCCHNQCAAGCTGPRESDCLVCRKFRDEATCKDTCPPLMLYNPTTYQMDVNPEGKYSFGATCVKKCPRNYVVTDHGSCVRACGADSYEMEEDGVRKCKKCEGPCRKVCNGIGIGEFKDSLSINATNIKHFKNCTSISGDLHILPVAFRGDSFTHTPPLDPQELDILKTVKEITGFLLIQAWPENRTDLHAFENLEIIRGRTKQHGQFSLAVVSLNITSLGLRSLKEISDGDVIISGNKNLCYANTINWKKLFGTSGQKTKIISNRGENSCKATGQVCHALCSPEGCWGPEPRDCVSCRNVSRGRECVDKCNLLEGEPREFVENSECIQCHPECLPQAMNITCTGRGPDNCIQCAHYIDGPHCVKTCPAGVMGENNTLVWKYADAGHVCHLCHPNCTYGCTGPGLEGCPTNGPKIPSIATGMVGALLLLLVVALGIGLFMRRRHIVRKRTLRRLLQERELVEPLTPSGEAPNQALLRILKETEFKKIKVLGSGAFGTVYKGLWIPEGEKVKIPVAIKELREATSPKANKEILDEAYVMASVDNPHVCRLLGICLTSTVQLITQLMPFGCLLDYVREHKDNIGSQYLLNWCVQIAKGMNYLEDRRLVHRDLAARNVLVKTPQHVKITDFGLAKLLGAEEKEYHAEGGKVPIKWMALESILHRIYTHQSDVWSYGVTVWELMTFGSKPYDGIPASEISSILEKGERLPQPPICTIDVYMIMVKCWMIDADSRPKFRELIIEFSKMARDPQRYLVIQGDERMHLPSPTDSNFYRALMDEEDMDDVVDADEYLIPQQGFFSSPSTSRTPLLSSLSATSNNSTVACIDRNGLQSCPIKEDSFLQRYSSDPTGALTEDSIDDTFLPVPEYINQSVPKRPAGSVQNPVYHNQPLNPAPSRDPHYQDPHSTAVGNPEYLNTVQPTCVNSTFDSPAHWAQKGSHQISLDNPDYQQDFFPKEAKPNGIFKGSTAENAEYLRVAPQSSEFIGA

A549 [15] = assay: Antiproliferative activity against human A549 cells harboring wild-type EGFR assessed as cell viability at 30 and 60 uM measured after 24 hrs; type: functional, cell-based
NCI-H460 [16] = assay: Antiproliferative activity against human NCI-H460 cells harboring wild-type EGFR assessed as cell viability at 30 and 60 uM measured after 24 hrs; type: functional, cell-based
NCI-H1975 [17] = assay: Induction of EGFR turnover in human NCI-H1975 cells harboring EGFR-mutant at 60 uM measured after 24 hrs in presence of proteosome inhibitor bortezomib by immunoblotting analysis; type: functional, cell-based
NCI-H1650 [18] = assay: Antiproliferative activity against human NCI-H1650 cells harboring EGFR-mutant assessed as cell viability measured after 24 hrs; type: functional, cell-based
A549 [19] = assay: Increase in cleaved caspase3 level in human A549 cells harboring wild-type EGFR at 30 and 60 uM by immunoblotting analysis; type: functional, cell-based
NCI-H460 [20] = assay: Induction of apoptosis in human NCI-H460 cells harboring wild-type EGFR assessed as cell death at 30 and 60 uM measured after 24 hrs by Annexin-V/PI staining based analysis; type: functional
PC-9 [21] = assay: Decrease in EGFR level in human erlotinib-resistant PC9 cells harboring EGFR T790M mutant at 30 and 60 uM measured after 24 hrs by immunoblotting analysis; type: functional, cell-based
[22] = biological target: Epidermal growth factor receptor (Homo sapiens) (UniProt P00533); assay: Inhibition of EGFR-mediated ERK phosphorylation in human NCI-H460 cells harboring wild-type EGFR at 30 and 60 uM measured after 24 hrs by immunoblotting analysis; type: cell-based
NCI-H1650 [23] = assay: Increase in cleaved caspase3 level in human NCI-H1650 cells harboring EGFR-mutant at 30 and 60 uM by immunoblotting analysis; type: functional, cell-based
NCI-H1975 [24] = assay: Induction of apoptosis in human NCI-H1975 harboring EGFR-mutant cells assessed as cell death measured after 24 hrs by Annexin-V/PI staining based analysis; type: functional
PC-9 [25] = assay: Decrease in EGFR level in human gefitinib-resistant PC9 cells harboring EGFR T790M mutant at 30 and 60 uM measured after 24 hrs by immunoblotting analysis; type: functional, cell-based
NCI-H460 [26] = assay: Increase in cleaved caspase3 level in human NCI-H460 cells harboring wild-type EGFR at 30 and 60 uM by immunoblotting analysis; type: functional, cell-based
A549 [27] = assay: Decrease in EGFR level in human A549 cells harboring wild-type EGFR at 30 and 60 uM measured after 24 hrs by immunoblotting analysis; type: functional, cell-based
NCI-H1975 [28] = assay: Effect on EGFR mRNA levels in human NCI-H1975 cells harboring EGFR-mutant at 30 uM by quantitative RT-PCR method; type: functional, cell-based
NCI-H460 [29] = assay: Decrease in EGFR level in human NCI-H460 cells harboring wild-type EGFR at 30 and 60 uM measured after 24 hrs by immunoblotting analysis; type: functional, cell-based
PC-9 [30] = assay: Increase in cleaved caspase3 level in human erlotinib-resistant PC9 cells harboring EGFR T790M mutant at 30 and 60 uM by immunoblotting analysis; type: functional, cell-based
PC-9 [31] = assay: Increase in cleaved caspase3 level in human gefitinib-resistant PC9 cells harboring EGFR T790M mutant at 30 and 60 uM by immunoblotting analysis; type: functional, cell-based
[32] = biological target: Epidermal growth factor receptor (Homo sapiens) (UniProt P00533); assay: Inhibition of EGFR-mediated AKT phosphorylation in human A549 cells harboring wild-type EGFR at 30 and 60 uM measured after 24 hrs by immunoblotting analysis; type: cell-based
NCI-H1650 [33] = assay: Induction of apoptosis in human NCI-H1650 cells harboring EGFR-mutant assessed as cell death at 60 uM in presence of NAC; type: functional, cell-based
NCI-H1975 [34] = assay: Decrease in EGFR level in human NCI-H1975 cells harboring EGFR-mutant measured after 24 hrs by immunoblotting analysis; type: functional, cell-based
NCI-H1650 [35] = assay: Inhibition of EGFR mutant-mediated AKT phosphorylation in human NCI-H1650 cells harboring EGFR-mutant at 30 and 60 uM measured after 24 hrs by immunoblotting analysis; type: cell-based
NCI-H1975 [36] = assay: Antiproliferative activity against human NCI-H1975 cells harboring EGFR-mutant assessed as cell viability measured after 24 hrs; type: functional, cell-based
[37] = biological target: Epidermal growth factor receptor (Homo sapiens) (UniProt P00533); assay: Inhibition of EGFR-mediated ERK phosphorylation in human A549 cells harboring wild-type EGFR at 30 and 60 uM measured after 24 hrs by immunoblotting analysis; type: cell-based
PC-9 [38] = assay: Increase in PARP level in human erlotinib-resistant PC9 cells harboring EGFR T790M mutant at 30 and 60 uM by immunoblotting analysis; type: functional, cell-based
A549 [39] = assay: Increase in PARP level in human A549 cells harboring wild-type EGFR at 30 and 60 uM by immunoblotting analysis; type: functional, cell-based
NCI-H1975 [40] = assay: Inhibition of EGFR mutant-mediated ERK phosphorylation in human NCI-H1975 cells harboring EGFR-mutant at 30 and 60 uM measured after 24 hrs by immunoblotting analysis; type: cell-based
PC-9 [41] = assay: Antiproliferative activity against human erlotinib-resistant PC9 cells harboring EGFR T790M mutant assessed as cell viability measured after 24 hrs; type: functional, cell-based
NCI-H1650 [42] = assay: Decrease in EGFR level in human NCI-H1650 cells harboring EGFR-mutant at 30 and 60 uM by […]; type: functional, cell-based
NCI-H1650 [43] = assay: Inhibition of EGFR mutant-mediated ERK phosphorylation in human NCI-H1650 cells harboring EGFR-mutant measured after 24 hrs by immunoblotting analysis; type: cell-based
NCI-H1650 [44] = assay: Increase in PARP level in human NCI-H1650 cells harboring EGFR-mutant at 30 and 60 uM by immunoblotting analysis; type: functional, cell-based
PC-9 [45] = assay: Induction of apoptosis in human gefitinib-resistant PC9 cells harboring EGFR T790M mutant assessed as cell death at 30 and 60 uM measured after 24 hrs by Annexin-V/PI staining based analysis; type: functional

In the case of `O=C(O)c1cc(O)c(O)c(O)c1`, the Activity (NCI-H1975 [1]) is reported as “inactive”, the Activity (NCI-H1650 [2]) is reported as “Dose-dependent effect” and the Activity (NCI-H1975 [3]) is reported as “Active”. The Activity (PC-9 [4]) was “Dose-dependent effect”, the Activity (NCI-H1975 [5]) was “Active” and the Activity (NCI-H1975 [6]) was “inactive”. For the same compound, the Activity (NCI-H460 [7]) was “inactive”, the Activity (PC-9 [8]) was “Active” and the Activity (PC-9 [9]) was “Active”. For the same compound, the Activity (A549 [10]) was “Active”, the Activity (NCI-H1975 [11]) was “Active” and the Activity (NCI-H1650 [12]) was “inactive”. For the same compound, the inhibition (NCI-H1975 [13]) was “Active”, the inhibition [14] was “inactive” and the Activity (A549 [15]) was “inactive”. The Activity (NCI-H460 [16]) was “inactive”, the Activity (NCI-H1975 [17]) was “inactive” and the Activity (NCI-H1650 [18]) was “Dose-dependent effect”. For the same compound, the Activity (A549 [19]) was “inactive”, the Activity (NCI-H460 [20]) was “Active” and the Activity (PC-9 [21]) was “Active”. The inhibition [22] was “inactive”, the Activity (NCI-H1650 [23]) was “Active” and the Activity (NCI-H1975 [24]) was “Dose-dependent effect”. The Activity (PC-9 [25]) was “Active”, the Activity (NCI-H460 [26]) was “inactive” and the inhibition (A549 [27]) was “inactive”. For the same compound, the Activity (NCI-H1975 [28]) was “inactive”, the inhibition (NCI-H460 [29]) was “inactive” and the Activity (PC-9 [30]) was “Active”. The Activity (PC-9 [31]) was “Active”, the inhibition [32] was “inactive” and the Activity (NCI-H1650 [33]) was “Active”. The inhibition (NCI-H1975 [34]) was “Dose-dependent effect”, the inhibition (NCI-H1650 [35]) was “Active” and the Activity (NCI-H1975 [36]) was “Dose-dependent effect”. The inhibition [37] was “inactive”, the Activity (PC-9 [38]) was “Active” and the Activity (A549 [39]) was “inactive”. For the same compound, the inhibition (NCI-H1975 [40]) was “Active”, the Activity (PC-9 [41]) was “Dose-dependent effect” and the inhibition (NCI-H1650 [42]) was “Dose-dependent effect”. For the same compound, the inhibition (NCI-H1650 [43]) was “Active”, the Activity (NCI-H1650 [44]) was “Active” and the Activity (PC-9 [45]) was “Active”.
